In patent publication EP0024348A1, “Substituted 6-Phenethyl-and phenylethenyl-3,4,5,6-tetrahydro-4-hydroxytetraydropyran-2-ones in the4-R trans stereoisomeric forms and the corresponding dihydroxy acids, process for preparing and pharmaceutical composition comprising them” (Merck & Co., Inc., priority 1979, dated 1981):
Structures can show the parent of a compound that is named as a salt.

Biological target: T1, 3-hydroxy-3-methylglutaryl coenzyme A reductase (Rattus norvegicus, UniProt P51639)
T1 sequence (P51639 1-887): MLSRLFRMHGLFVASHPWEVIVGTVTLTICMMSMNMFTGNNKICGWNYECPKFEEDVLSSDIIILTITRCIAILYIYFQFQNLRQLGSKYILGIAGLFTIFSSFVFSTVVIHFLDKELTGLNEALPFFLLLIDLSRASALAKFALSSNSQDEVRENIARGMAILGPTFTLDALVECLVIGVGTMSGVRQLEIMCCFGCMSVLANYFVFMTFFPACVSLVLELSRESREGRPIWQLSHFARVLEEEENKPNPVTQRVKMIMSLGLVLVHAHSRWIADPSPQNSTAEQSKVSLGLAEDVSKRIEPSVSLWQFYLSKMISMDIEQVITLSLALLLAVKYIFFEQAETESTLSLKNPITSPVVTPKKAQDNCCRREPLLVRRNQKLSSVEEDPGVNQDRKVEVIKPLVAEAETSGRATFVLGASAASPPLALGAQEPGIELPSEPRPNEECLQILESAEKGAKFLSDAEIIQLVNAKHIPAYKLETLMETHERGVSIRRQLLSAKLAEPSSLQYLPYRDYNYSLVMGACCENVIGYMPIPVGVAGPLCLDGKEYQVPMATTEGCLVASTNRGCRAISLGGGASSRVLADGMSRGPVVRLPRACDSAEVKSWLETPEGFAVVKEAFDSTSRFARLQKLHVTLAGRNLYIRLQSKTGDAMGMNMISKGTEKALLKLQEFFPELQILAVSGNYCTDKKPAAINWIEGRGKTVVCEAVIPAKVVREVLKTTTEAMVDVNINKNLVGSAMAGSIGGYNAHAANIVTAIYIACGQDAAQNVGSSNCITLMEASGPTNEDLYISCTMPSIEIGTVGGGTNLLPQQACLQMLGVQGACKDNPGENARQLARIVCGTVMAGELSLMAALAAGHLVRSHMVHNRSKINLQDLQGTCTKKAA
Experiment: Method A: in vitro enzyme inhibition by the method of Knauss et al.
Type: biochemical
Source text: The inhibitory activity of these compounds for the biosynthesis of cholesterol has been measured by two methods. The experimental method A has been realized in vitro by the method of H. J. Knauss, et al., J. Biol. Chem., 234, 2835 (1959) and the activity was expressed as the molar concentration IC50(M) necessary for the inhibition of 50% of the enzymatic activity. The experimental method B was the method of A. A. Kandutsch, et al., J. Biol. Chem., 248, 8403 (1973) for measuring the quantity of ^14C-cholesterol biosynthesis from acetic acid-^14C in mouse L cells. The activity is expressed for inhibition of 50% of the biosynthesis of cholesterol.

In the case of `O=C1C[C@H](O)C[C@@H](CCc2c(Cl)cc(Cl)cc2OCc2ccccc2)O1` (single isomer, unassigned) [Example 14, (+)-Trans-6-[2-(2,4-dichloro-6-phenylmethoxyphenyl)ethyl]-3,4,5,6-tetrahydro-4-hydroxy-2H-pyran-2-one], the IC50 (test by method A) is reported as 68 nM.
`O=C(O)C[C@H](O)C[C@H](O)/C=C/c1c(Cl)cc(Cl)cc1-c1ccc(F)cc1` (single isomer, unassigned) [Example 38, (+)-(E)-(3R*, 5S*)-7-(3,5-dichloro-4'-fluoro[1,1'-biphenyl]-2y1)-3,5-dihydroxy-6-heptenoic acid, ammonium salt] was tested, and the “potency compared with compactin” value (both tested as the sodium salts of their corresponding hydroxy acid forms) was “greater than that of compactin” and the IC50 (tested as the sodium salts of their corresponding hydroxy acid forms, method not restated) was about 2.8 nM.
